Reference: PMC4792136, “A generic screening platform for inhibitors of virus induced cell fusion using cellular electrical impedance” (Scientific Reports, 2016)

Columns and labels:
RSV [1] = test system: RSV; design: method as in earlier work; conditions: HEp-2 cells, MOI 0.2, 48 h, MTT; CPE data supplied by Biota Pharmaceuticals ref 35; cited from earlier work
RSV [2] = test: RSV CEI fusion assay, live virus, 96-well; assay type: cell-based, respiratory syncytial virus; conditions: for IC50: human respiratory syncytial virus, read-out: RSV CEI 96 IC50
Text: (§1) Impedance assays were setup in parallel to microscopy based fluorescent protein cytoplasmic mixing and cell content mixing T7 driven fusion assays. For testing small molecule inhibitors see cell content mixing, T7 driven reporter fusion assay protocol for cell infection, transfection and plating method. All other steps were as listed below.
(§2) Cos7-G cells were transfected with the RSV F expression vector (pCICO-Fopt) in 6 well plates using lipofectamine LTX as per manufacturer’s instructions (Invitrogen) or infected with RSV (MOI of 2). Four hours post infection/transfection, cells were trypsinized and re-suspended to 8 × 10^5 cells/ml. E-Plates were pre-blanked and Cos7-G and Cos7-R cells were seeded together at a 1:1 ratio for a final cell density of 5 × 10^4 cells/well. Plates were placed into the SP station, incubated at 37 °C in 5% CO2 and impedance was recorded every 15 min over 72 h.
(§3) The protocol is an adaptation of that described by Bagai and Lamb[29]. Cos7 cells were transfected with a plasmid containing Renilla luciferase under T7 promoter control (pGL80-T7RL) and an RSV F expression vector. For live virus fusion assay, transfection media was removed after 2 h and replaced with SF media containing RSV (MOI of 2). Two h post infection (4 h post initial transfection) cells were trypsinized and re-suspended to 8 × 10^5 cells/ml. Compounds were serially diluted in SF Opti-MEM media and added to opaque bottom, white microtitre plates (Corning) at 50 μl/well along with 25 μl of both Cos7 and BsrT7 cells added to each well to obtain a final concentration of 5 × 10^4 cells/well. After 24 h, media was exchanged with 50 μl/well Opti-MEM media supplemented with 2% FBS and 8 ng/ml Enduren Live Cell Substrate (Promega). After 6 h at 37 °C in a humidified incubator supplemented with 5% CO2, the plates were read using a Lucy 2 luminometer with 1 sec integration time. Assays were performed in triplicate.

RSV F protein [3] = target: T1, RSV F protein (Human respiratory syncytial virus A, UniProt P03420); test: recombinant F CEI fusion assay, 384-well; assay type: cell-based
T1 construct: expressed in transfected cells; host or cells: Cos7 cells (transiently transfected), co-plated with BsrT7 cells
T1 sequence (P03420 137-574): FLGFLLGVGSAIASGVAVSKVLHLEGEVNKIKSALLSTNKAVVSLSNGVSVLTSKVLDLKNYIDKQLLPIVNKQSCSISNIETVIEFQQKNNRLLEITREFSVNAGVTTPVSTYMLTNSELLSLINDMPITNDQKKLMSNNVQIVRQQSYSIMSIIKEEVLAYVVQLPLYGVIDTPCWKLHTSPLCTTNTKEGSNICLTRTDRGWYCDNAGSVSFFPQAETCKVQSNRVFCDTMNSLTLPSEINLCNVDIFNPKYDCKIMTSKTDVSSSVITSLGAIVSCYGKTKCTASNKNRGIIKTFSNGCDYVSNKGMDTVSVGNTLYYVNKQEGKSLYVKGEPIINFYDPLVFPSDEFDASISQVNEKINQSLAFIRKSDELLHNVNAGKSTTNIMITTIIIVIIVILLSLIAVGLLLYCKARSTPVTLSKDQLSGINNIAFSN
T1 sequence (P03420 26-109): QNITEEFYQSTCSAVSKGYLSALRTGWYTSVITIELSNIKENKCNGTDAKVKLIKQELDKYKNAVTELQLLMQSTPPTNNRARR
Text: as §1, §2
(§4) 384-well fusion assays were setup as per 96-well protocol with the following changes: Cos7 and BsrT7 cells were seeded at a final concentration of 1 × 10^4 cells/well. Compound titration was performed in a Biomek NX Laboratory Automation Workstation and added to a final volume of 25 μl/well. Luciferase activity was determined using an EnVision Multilabel reader (PerkinElmer).

RSV F protein [4] = target: T1, RSV F protein; test: Cell content mixing T7 luciferase fusion assay, recombinant F, 96-well; assay type: cell-based
Description: as §3

RSV F protein [5] = target: T1, RSV F protein; test: Cell content mixing T7 luciferase fusion assay, recombinant F, 384-well; assay type: cell-based
Description: as §3, §4

RSV [6] = test: Plaque-reduction neutralization (PRNT) assay, RSV; assay type: cell-based; conditions: human respiratory syncytial virus; RSV on vero cells; in Table S1 printed as ± followed by a range
RSV F protein [7] = target: T1, RSV F protein; test: recombinant F CEI fusion assay, 96-well; assay type: cell-based; conditions: cells transfected with noncoding empty vector (eV)
Text: as §1, §2
The protocol is an adaptation of that described by Bagai and Lamb[29]. Cos7 cells were transfected with a plasmid containing Renilla luciferase under T7 promoter control (pGL80-T7RL) and an RSV F expression vector. For live virus fusion assay, transfection media was removed after 2 h and replaced with SF media containing RSV (MOI of 2). […] After 6 h at 37 °C in a humidified incubator supplemented with 5% CO2, the plates were read using a Lucy 2 luminometer with 1 sec integration time. […]

SMILES	CPE EC50 (RSV [1]) [log10 M]	IC50 (RSV [2]) [nM]	IC50 (RSV F protein [3]) [nM]	IC50 (RSV F protein [4]) [nM]	IC50 (RSV F protein [5]) [µM]	change in cell impedance of control cells (RSV [2]; control (uninfected) cells)	IC50 (RSV [6]) [nM]	effect on cell impedance of control cells (RSV F protein [7])
O=C(c1ccc(F)cc1)N1CCN2C(=O)c3ccncc3C12c1ccc(Cl)cc1 (centres unmarked) [BTA-1]	-6.5	398	6310	3980	158	–	–	–
Cc1ccc(CCCO)c(NCc2ccc3nc(NCCCN4CCOCC4)n(Cc4nc(C)ccc4O)c3c2)c1 [TMC-353121]	–	0.794	–	–	–	No change in cell impedance	5.8	No effect on cell impedance
O=C(c1ccoc1)N1CCN2C(=O)c3cc[n+]([O-])cc3[C@]12c1ccc(Cl)cc1 [BTA-4]	-7.6	39.8	2510	1000	7.94	–	–	–
O=C(c1ccc(F)cc1)N1CCN2C(=O)c3cc[n+]([O-])cc3C12c1ccc(Cl)cc1 (centres unmarked) [BTA-3]	-6.8	200	1000	2510	31.6	–	–	–
Cc1ocnc1C(=O)N1CCN2C(=O)c3ccncc3C21C1CCOCC1 (centres unmarked) [BTA-6]	-8.5	5.01	200	39.8	1	–	–	–
O=C(c1ccoc1)N1CCN2C(=O)c3ccncc3[C@]12c1ccc(Cl)cc1 [BTA-2]	-7.9	20	251	158	2.51	–	–	–
O=C1c2ccncc2[C@@]2(c3ccc(Cl)cc3)N1CCN2C(=O)C1CC1 [BTA-7]	-5.8	794	12600	39800	–	–	–	–
Cc1ocnc1C(=O)N1CCN2C(=O)c3ccncc3[C@@]21c1ccc(Cl)cc1 [BTA-5]	-6.6	501	2510	12600	79.4	–	–	–
